In PubChem BioAssay AID330 (DTP/NCI, 2004) one finds T/C data, which are given here for 22 compounds.

For this experiment, the system named is P388 leukemia ip, CD2F1 mice, survival T/C. As to the kind of experiment: NCI In Vivo Anticancer Drug Screen. Data for tumor model P388 Leukemia (intraperitoneal) in CD2F1 (CDF1) mice. As to conditions: endpoint: median survival time, higher = longer survival. The procedure, abridged: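 Mice carrying the transplanted tumor received test compound or vehicle. Survival was recorded in each group, and the value is the treated-group measurement divided by that of the vehicle-treated control group.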

[1] abbreviates: dose: 100.0 mg/kg/injection, schedule: Q01DX005 (ip), vehicle: saline with Tween-80.
The mark [2] stands for this setting: dose: 100.0 mg/kg/injection, schedule: Q04DX002 (ip), vehicle: saline with Tween-80.
Where [3] appears, read: dose: 200.0 mg/kg/injection, schedule: Q04DX002 (ip), vehicle: saline with Tween-80.
Where [4] appears, read: dose: 100.0 mg/kg/injection, schedule: Q01DX009 (ip), vehicle: saline with Tween-80.
The mark [5] stands for this setting: dose: 200.0 mg/kg/injection, schedule: Q01DX009 (ip), vehicle: saline with Tween-80.
Setting [6] is: dose: 12.5 mg/kg/injection, schedule: Q01DX009 (ip), vehicle: Klucel (hydroxypropylcellulose) (HPC).
Where [7] appears, read: dose: 100.0 mg/kg/injection, schedule: Q04DX003 (ip), vehicle: saline with Tween-80.
Setting [8] is: dose: 200.0 mg/kg/injection, schedule: Q04DX003 (ip), vehicle: saline with Tween-80.
Setting [9] is: dose: 60.0 mg/kg/injection, schedule: Q01DX005 (ip), vehicle: saline with Tween-80.
[10] abbreviates: dose: 120.0 mg/kg/injection, schedule: Q01DX005 (ip), vehicle: saline with Tween-80.

SMILES strings stand for the structures. “And” between values parts separate entries of the source, which are not always exact repeats. Identical values can stand only once. Toxic doses and inconclusive results are not listed.

Regarding `ClCCN(CCCN(CCCl)c1ccccc1)c1ccccc1`, the T/C is, setting by setting: (dose: 200.0 mg/kg/injection, schedule: Q01DX001 (ip), vehicle: saline with Tween-80) 164 % of control; (dose: 400.0 mg/kg/injection, schedule: Q01DX001 (ip), vehicle: saline with Tween-80) 150 % of control and 157 % of control; (dose: 800.0 mg/kg/injection, schedule: Q01DX001 (ip), vehicle: saline with Tween-80) 160 % of control.
As for `O=C1C=CC(=O)N1c1ccc(Br)cc1Cl`, the T/C (dose: 1.0 mg/kg/injection, schedule: Q01DX009 (ip), vehicle: saline) is 104 % of control; the T/C (dose: 1.8 mg/kg/injection, schedule: Q04DX003 (ip), vehicle: saline) is 113 % of control; the T/C (dose: 2.0 mg/kg/injection, schedule: Q01DX009 (ip), vehicle: saline) is 109 % of control; the T/C (dose: 2.6 mg/kg/injection, schedule: Q04DX003 (ip), vehicle: saline) is 109 % of control; the T/C (dose: 4.0 mg/kg/injection, schedule: Q01DX009 (ip), vehicle: saline) was 113 % of control; the T/C (dose: 4.0 mg/kg/injection, schedule: Q04DX003 (ip), vehicle: saline) was 113 % of control. Besides, under “dose: 6.0 mg/kg/injection, schedule: Q04DX003 (ip), vehicle: saline”, the T/C is 118 % of control.
Turning to `O=C(OC1C2C=CC1C1C3CCC(c4ccccc43)C21)c1ccc([N+](=O)[O-])cc1[N+](=O)[O-]` (stereo unspecified), the T/C is, setting by setting: (dose: 100.0 mg/kg/injection, schedule: Q04DX002 (ip), vehicle: saline) 103 % of control; (dose: 200.0 mg/kg/injection, schedule: Q04DX002 (ip), vehicle: saline) 99 % of control; (dose: 400.0 mg/kg/injection, schedule: Q04DX002 (ip), vehicle: saline) 100 % of control.
On to `COC(=O)CN1C(=O)c2cccc3cc(N)cc(c23)C1=O`, for which the T/C under setting [1] is 87 % of control.
Regarding `CC1C(=O)OC2C1CCC1(C)C=C(Cl)C(=O)C(C)(Cl)C21O` (stereo unspecified), the T/C is 111 % of control (dose: 50.0 mg/kg/injection, schedule: Q04DX002 (ip), vehicle: saline with Tween-80); 107 % of control under setting [2]; 100 % of control under setting [3].
Regarding `CC(=NCCN=C(C)c1ccccc1O)c1ccccc1O.[Cu]`, the T/C is, setting by setting: (dose: 50.0 mg/kg/injection, schedule: Q01DX009 (ip), vehicle: saline with Tween-80) 105 % of control; under setting [4], 99 % of control; under setting [5], 89 % of control.
Regarding `CCCCCCOC(CN(C)C)C(Cl)(Cl)Cl` (stereo unspecified), the T/C is 97 % of control (dose: 50.0 mg/kg/injection, schedule: Q01DX009 (ip), vehicle: suspension in saline); 96 % of control (dose: 100.0 mg/kg/injection, schedule: Q01DX009 (ip), vehicle: suspension in saline); 124 % of control (dose: 400.0 mg/kg/injection, schedule: Q01DX009 (ip), vehicle: suspension in saline).
On to `C[Si](OC(=O)N(CCCl)CCCl)(c1ccccc1)c1ccccc1`, for which the T/C runs as follows: (dose: 3.12 mg/kg/injection, schedule: Q01DX009 (ip), vehicle: Klucel (hydroxypropylcellulose) (HPC)) 103 % of control; (dose: 6.25 mg/kg/injection, schedule: Q01DX009 (ip), vehicle: Klucel (hydroxypropylcellulose) (HPC)) 106 % of control; under setting [6], 113 % of control.
Take `CCOC(=O)c1[nH]c(=O)[nH]c(=O)c1CBr`: the T/C reads like this: (dose: 12.5 mg/kg/injection, schedule: Q01DX009 (ip), vehicle: distilled water + Tween-80) 98 % of control; (dose: 25.0 mg/kg/injection, schedule: Q01DX009 (ip), vehicle: distilled water + Tween-80) 98 % of control; (dose: 50.0 mg/kg/injection, schedule: Q01DX009 (ip), vehicle: distilled water + Tween-80) 98 % of control; (dose: 100.0 mg/kg/injection, schedule: Q01DX009 (ip), vehicle: distilled water + Tween-80) 98 % of control.
Take `S=c1[nH]c(N2CCOCC2)ncc1-c1ccccc1`: the T/C by setting is: under setting [2], 99 % of control; under setting [3], 99 % of control.
As to `CCN(CC)CCCNc1nccc2ccc(OC)cc12`, the T/C is 99 % of control (dose: 50.0 mg/kg/injection, schedule: Q01DX005 (ip), vehicle: saline); 99 % of control (dose: 100.0 mg/kg/injection, schedule: Q01DX005 (ip), vehicle: saline); 97 % of control (dose: 200.0 mg/kg/injection, schedule: Q01DX005 (ip), vehicle: saline).
Turning to `COC(=O)C1=C(C(=O)OC)[C@@H]2CCC[C@H]1[C@H]1[C@@H]2N=NN1c1ccccc1`, the T/C was 100 % of control (dose: 50.0 mg/kg/injection, schedule: Q01DX005 (ip), vehicle: saline with Tween-80); 98 % of control under setting [1]; 100 % of control (dose: 200.0 mg/kg/injection, schedule: Q01DX005 (ip), vehicle: saline with Tween-80).
As for `Cc1ccc2c(c1)C(C(F)(F)F)(C(F)(F)F)OC(C(F)(F)F)(C(F)(F)F)N2`, the T/C (dose: 50.0 mg/kg/injection, schedule: Q04DX003 (ip), vehicle: saline with Tween-80) was 104 % of control; the T/C under setting [7] was 100 % of control; the T/C under setting [8] is 108 % of control.
Turning to `Cc1[nH]c2ccc(N(C)C)cc2c(=O)c1C`, the T/C runs as follows: under setting [6], 96 % of control; (dose: 25.0 mg/kg/injection, schedule: Q01DX009 (ip), vehicle: Klucel (hydroxypropylcellulose) (HPC)) 104 % of control and 107 % of control; (dose: 50.0 mg/kg/injection, schedule: Q01DX009 (ip), vehicle: Klucel (hydroxypropylcellulose) (HPC)) 100 % of control and 103 % of control and 123 % of control; (dose: 100.0 mg/kg/injection, schedule: Q01DX009 (ip), vehicle: Klucel (hydroxypropylcellulose) (HPC)) 102 % of control and 103 % of control and 107 % of control; (dose: 200.0 mg/kg/injection, schedule: Q01DX009 (ip), vehicle: Klucel (hydroxypropylcellulose) (HPC)) 112 % of control.
As to `CCOC(=O)C(C(=O)OCC)=C(C)C`, the T/C (dose: 21.3 mg/kg/injection, schedule: Q01DX009 (ip), vehicle: saline with Tween-80) was 93 % of control; the T/C (dose: 42.5 mg/kg/injection, schedule: Q01DX009 (ip), vehicle: saline with Tween-80) is 90 % of control; the T/C (dose: 85.0 mg/kg/injection, schedule: Q01DX009 (ip), vehicle: saline with Tween-80) is 91 % of control; the T/C (dose: 170.0 mg/kg/injection, schedule: Q01DX009 (ip), vehicle: saline with Tween-80) was 93 % of control; the T/C (dose: 177.0 mg/kg/injection, schedule: Q01DX009 (ip), vehicle: saline with Tween-80) is 123 % of control; the T/C (dose: 400.0 mg/kg/injection, schedule: Q01DX009 (ip), vehicle: saline with Tween-80) was 120 % of control.
For `COc1cc(/C=C/[N+](=O)[O-])c(OC)cc1Br`, the T/C (dose: 25.0 mg/kg/injection, schedule: Q01DX009 (ip), vehicle: saline with Tween-80) is 122 % of control.
With `O=C1CCC(Cc2ccc(Cl)cc2Cl)C(=O)N1` (stereo unspecified), the T/C was 96 % of control under setting [9]; 94 % of control under setting [10]; 87 % of control (dose: 240.0 mg/kg/injection, schedule: Q01DX005 (ip), vehicle: saline with Tween-80).
`NC(=O)NC1OC(CO)C(O)C(O)C1O` (stereo unspecified): the T/C is 95 % of control (dose: 100.0 mg/kg/injection, schedule: Q04DX003 (ip), vehicle: saline); 95 % of control (dose: 200.0 mg/kg/injection, schedule: Q04DX003 (ip), vehicle: saline); 100 % of control (dose: 400.0 mg/kg/injection, schedule: Q04DX003 (ip), vehicle: saline).
On to `C/C=C1\CN2CCC34c5ccccc5N5C(C6C7CC8N(CCC89c8ccccc8N(C(C)=O)C69)C/C7=C\C)OCC(C1CC23)C54` (stereo unspecified), for which the T/C runs as follows: (dose: 12.06 mg/kg/injection, schedule: Q01DX009 (ip), vehicle: saline with Tween-80) 100 % of control; (dose: 24.12 mg/kg/injection, schedule: Q01DX009 (ip), vehicle: saline with Tween-80) 107 % of control; (dose: 48.25 mg/kg/injection, schedule: Q01DX009 (ip), vehicle: saline with Tween-80) 109 % of control.
As for `O=C(OC1CCc2ccccc2C1)c1ccc(N=Nc2ccccc2)cc1` (stereo unspecified), the T/C was 100 % of control (dose: 15.0 mg/kg/injection, schedule: Q01DX005 (ip), vehicle: saline with Tween-80); 97 % of control (dose: 30.0 mg/kg/injection, schedule: Q01DX005 (ip), vehicle: saline with Tween-80); 91 % of control under setting [9]; 86 % of control under setting [10].
With `Cc1ccc2oc(-c3ccccc3)c(O)c(=O)c2c1`, the T/C by setting is: under setting [7], 100 % of control; under setting [8], 108 % of control; (dose: 400.0 mg/kg/injection, schedule: Q04DX003 (ip), vehicle: saline with Tween-80) 95 % of control.
In the case of `COc1cccc(CCl)c1`, the T/C was 110 % of control and 118 % of control under setting [4]; 117 % of control and 124 % of control under setting [5].
